Test results taken from patent publication US10689365B2, “Substituted 2-alkylimidazolylcarboxamides as pesticides” (Bayer CropScience Aktiengesellschaft, priority 2016, dated 2020).
Like-named read-outs stand apart in the source and are kept apart here.

Columns and labels:
Myzus persicae [1] = assay: Myzus persicae - oral test (MYZUPE O); assay type: in vivo; conditions: read-out: % efficacy
Experimental: Myzus persicae—Oral Test (MYZUPE O)
(§1) Solvent: 100 parts by weight of acetone
(§2) To produce a suitable preparation of active compound, 1 part by weight of active compound is dissolved using the specified parts by weight of solvent and made up with water until the desired concentration is attained.
(§3) 50 μl of the active compound preparation are transferred into microtitre plates and made up to a final volume of 200 μl with 150 μl of IPL41 insect medium (33%+15% sugar). Subsequently, the plates are sealed with parafilm, which a mixed population of green peach aphids (Myzus persicae) within a second microtitre plate is able to puncture and imbibe the solution through it.
(§4) After the desired period of time, the efficacy in % is determined. 100% means that all the aphids have been killed; 0% means that no aphids have been killed.

Myzus persicae [2] = assay: Myzus persicae - drench test (MYZUPE D), Savoy cabbage in soil; assay type: in vivo; conditions: 240 h, 10 dat, read-out: % efficacy
Experimental: Myzus persicae—Drench Test (MYZUPE D)
To produce a suitable active compound preparation, 1 part by weight of active compound is mixed with the specified amounts of solvent and emulsifier, and the concentrate is diluted with water to the desired concentration, it being necessary to include the volume of soil which is drenched in the calculation. It should be ensured that a concentration of 40 ppm of emulsifier in the soil is not exceeded. To produce further test concentrations, water is used for dilution.
Savoy cabbage (Brassica oleracea) in pots with soil and infested by all stages of the green peach aphid (Myzus persicae) is watered with an active compound preparation of the desired concentration.
as §4

Myzus persicae [3] = assay: Myzus persicae - spray test (MYZUPE), Chinese cabbage leaf discs; assay type: in vivo; conditions: foliar; for percent efficacy (aphid mortality) at 20 g/ha / Emax at 20 g/ha: 20 g of ai/ha; for percent efficacy (aphid mortality) at 100 g/ha: 100 g of ai/ha; for Emax at 20 g/ha: read-out: % efficacy
Experimental: Myzus persicae—Spray Test (MYZUPE)
Solvent: 78.0 parts by weight of acetone • • 1.5 parts by weight of dimethylformamide
(§5) Emulsifier: alkylaryl polyglycol ether
(§6) To produce a suitable active compound preparation, 1 part by weight of active compound is dissolved using the stated parts by weight of solvent and made up with water containing an emulsifier concentration of 1000 ppm until the desired concentration is attained. To produce further test concentrations, the formulation is diluted with emulsifier-containing water.
Discs of Chinese cabbage leaves (Brassica pekinensis) infested by all stages of the green peach aphid (Myzus persicae) are sprayed with an active compound preparation of the desired concentration.
as §4

Myzus persicae [4] = assay: Myzus persicae - spray test (MYZUPE S), bell pepper plants; assay type: in vivo; conditions: 144 h, 6 dat, read-out: % efficacy
Experimental: Myzus persicae—Spray Test (MYZUPE S)
(§7) Solvent: 14 parts by weight of dimethylformamide
as §5
as §6, with “with” for “using”, “specified” for “stated”, “water. If the addition of ammonium salts or/and penetrants is required, these are each added in a concentration of 1000 ppm to the formulation solution.” for “water.”
Bell pepper plants (Capsicum annuum) severely infested with the green peach aphid (Myzus persicae) are treated by spraying with the active ingredient formulation in the desired concentration.
After the desired time, the kill in % is determined. 100% means that all the animals have been killed; 0% means that no animals have been killed.

[5] = log P by HPLC on reversed-phase (C18) columns, OECD Guideline 117; assay type: physicochemical; conditions: reversed-phase (C18) HPLC column
Experimental: The log P values were determined in accordance with OECD Guideline 117 (EC Directive 92/69/EEC) by HPLC (high-performance liquid chromatography) using reversed-phase (RP) columns (C18), by the following methods:
[a] The LC-MS determination in the acidic range was carried out at pH 2.7 with 0.1% aqueous formic acid and acetonitrile (contains 0.1% formic acid) as mobile phases; linear gradient from 10% acetonitrile to 95% acetonitrile.
[b] LC-MS determination in the neutral range was carried out at pH 7.8 with 0.001 molar aqueous ammonium hydrogencarbonate solution and acetonitrile as mobile phases; linear gradient from 10% acetonitrile to 95% acetonitrile.

Myzus persicae [6] = assay: Myzus persicae - oral test; assay type: in vivo; conditions: Myzus persicae, po, 120 h; application rate 20 ppm, after 5 days; read-out: efficacy
Experimental: as §1, §2, §3
After 5 days, the efficacy in % is determined. 100% means that all the aphids have been killed; 0% means that no aphids have been killed.

Myzus persicae [7] = assay: Myzus persicae - spray test (Chinese cabbage leaf discs); assay type: in vivo; conditions: Myzus persicae, foliar; application rate 500 g/ha, after 5-6 days; read-out: efficacy
Experimental: Myzus persicae—Spray Test
Solvent: 78 parts by weight of acetone • • 1.5 parts by weight of dimethylformamide
as §5, §6
Discs of Chinese cabbage leaves (Brassica pekinensis) infested by all stages of the green peach aphid (Myzus persicae) are sprayed with an active ingredient formulation of the desired concentration.
After 5-6 days, the efficacy in % is determined. 100% means that all the aphids have been killed; 0% means that no aphids have been killed.

Aphis gossypii = Aphis gossypii - spray test (APHIGO S), cotton plants; assay type: in vivo; conditions: 144 h, 6 dat, read-out: % efficacy
Experimental: Aphis gossypii—Spray Test (APHIGO S)
as §7, §5
as §6, with “water. If the addition of ammonium salts or/and penetrants is required, these are each added in a concentration of 1000 ppm to the formulation solution.” for “water.”
Cotton plants (Gossypium hirsutum) heavily infested by the cotton aphid (Aphis gossypii) are sprayed with an active ingredient formulation of the desired concentration.
After the desired time, the kill in % is determined. 100% means that all the aphids have been killed; 0% means that no aphids have been killed.

[8] = acidic range, pH 2.7, 0.1% aqueous formic acid/acetonitrile, read-out: logP[a]
[9] = neutral range, pH 7.8, aqueous ammonium hydrogencarbonate/acetonitrile, read-out: logP[n]

Row | SMILES | Emax at 4 ppm (Myzus persicae [1]; 120 h, 5 dat) [%] | Emax at 0.16 ppm (Myzus persicae [2]) [%] | percent efficacy (aphid mortality) at 20 g/ha (Myzus persicae [3]; 120 h, 5 dat) [%] | percent efficacy (aphid mortality) at 100 g/ha (Myzus persicae [3]; 120 h, 5 dat) [%] | Emax at 0.16 ppm (Myzus persicae [4]) [%] | chromatographic logP [5, 8] | chromatographic logP [5, 9] | pest or weed control at 20 ppm (Myzus persicae [6]) [%] | pest or weed control at 500 g/ha (Myzus persicae [7]) [%] | percent kill (mortality) of aphids at a fixed dose at 0.8 ppm (Aphis gossypii) [%] | Emax at 4 ppm (Aphis gossypii) [%] | Emax at 0.8 ppm (Aphis gossypii) [%] | percent kill (mortality) of aphids at a fixed dose at 4 ppm (Aphis gossypii) [%] | Emax at 20 g/ha (Myzus persicae [3]; 120 h, 5 dat) [%] | Emax at 4 ppm (Myzus persicae [1]; 144 h, 6 dat) [%] | percent efficacy (aphid mortality) at 100 g/ha (Myzus persicae [3]; 144 h, 6 dat) [%]
1 | CCN(C(=O)c1cnc(CSCC2CC2)n1C)c1cccnc1 [Example I-1-53] | 100 | 90 | 100 | 100 | 99 | 1.19 | 1.82 | 100 | 100 | 98 | 97 |  |  |  |  | 
2 | CN(C(=O)c1cnc(CSCC2CC2)n1C)c1cccnc1 [Example I-1-35] | 100 | 98 | 90 | 90 | 100 | 0.96 | 1.57 | 100 | 100 |  | 100 | 99 |  |  |  | 
3 | CCSCc1ncc(C(=O)N(CC)c2cccnc2)n1C [Example I-1-49] | 100 | 95 | 70 | 70 | 95 | 0.71 |  | 100 | 90 |  | 100 | 98 |  |  |  | 
4 | CCN(C(=O)c1cnc(CSCC(C)(C)C)n1C)c1cccnc1 [Example I-1-54] | 100 | 90 | 90 | 90 | 99 | 1.68 | 2.34 | 100 | 90 | 90 | 95 |  |  |  |  | 
5 | CN(C(=O)c1cnc(CS(=O)(=O)CC2CC2)n1C)c1cccnc1 [Example I-1-48] | 100 | 90 | 100 | 100 | 99 | 0.71 | 1.04 | 100 | 100 | 100 |  |  | 100 |  |  | 
6 | CCS(=O)(=O)Cc1ncc(C(=O)N(C)c2cccnc2)n1C [Example I-1-28] | 100 | 95 |  | 90 | 95 | 0.35 | 0.65 | 100 | 100 |  | 100 | 98 |  | 100 |  | 
7 | CN(C(=O)c1cnc(Cn2nccn2)n1C)c1cccnc1 [Example I-1-47] |  | 90 |  |  | 90 | 0.35 | 0.75 | 100 | 100 |  | 100 | 100 |  |  | 100 | 90
8 | CCN(C(=O)c1cnc(CSC(C)C)n1C)c1cccnc1 [Example I-1-50] | 100 | 98 |  | 90 | 100 | 1.1 | 1.73 | 100 | 90 | 90 | 95 |  |  | 70 |  | 
9 | CCN(C(=O)c1cnc(CSC(C)(C)C)n1C)c1cccnc1 [Example I-1-52] | 100 | 95 |  | 90 | 99 | 1.29 | 1.93 | 100 | 90 |  |  |  | 90 | 70 |  | 
10 | CN(C(=O)c1cnc(CS(=O)(=O)C(C)(C)C)n1C)c1cccnc1 [Example I-1-34] | 100 | 90 | 90 | 90 | 45 | 0.75 | 1.03 | 100 | 100 |  | 95 | 85 |  |  |  | 
11 | CC(C)CS(=O)(=O)Cc1ncc(C(=O)N(C)c2cccnc2)n1C [Example I-1-32] | 100 | 98 |  | 70 | 98 | 1.05 | 1.26 | 100 | 90 |  | 97 | 98 |  |  |  | 
12 | CC(C)S(=O)(=O)Cc1ncc(C(=O)N(C)c2cccnc2)n1C [Example I-1-30, 2-[(Isopropylsulphonyl)methyl]-N,1-dimethyl-N-(pyridin-3-yl)-1H-imidazole-5-carboxamide] | 100 | 98 | 90 | 90 | 98 | 0.56 | 0.88 | 100 | 90 |  | 100 | 100 |  |  |  | 
13 | CSCc1ncc(C(=O)N(C)c2cccnc2)n1C [Example I-1-26] | 100 | 90 | 90 | 90 | 95 | -0.04 | 0.98 | 100 | 100 |  | 98 | 30 |  |  |  | 
